The target in experiment [1] is T1, NUAK1(h) enzyme (Homo sapiens, UniProt O60285).
T1 construct: purchased Eurofins Discovery
T1 sequence (O60285 1-661): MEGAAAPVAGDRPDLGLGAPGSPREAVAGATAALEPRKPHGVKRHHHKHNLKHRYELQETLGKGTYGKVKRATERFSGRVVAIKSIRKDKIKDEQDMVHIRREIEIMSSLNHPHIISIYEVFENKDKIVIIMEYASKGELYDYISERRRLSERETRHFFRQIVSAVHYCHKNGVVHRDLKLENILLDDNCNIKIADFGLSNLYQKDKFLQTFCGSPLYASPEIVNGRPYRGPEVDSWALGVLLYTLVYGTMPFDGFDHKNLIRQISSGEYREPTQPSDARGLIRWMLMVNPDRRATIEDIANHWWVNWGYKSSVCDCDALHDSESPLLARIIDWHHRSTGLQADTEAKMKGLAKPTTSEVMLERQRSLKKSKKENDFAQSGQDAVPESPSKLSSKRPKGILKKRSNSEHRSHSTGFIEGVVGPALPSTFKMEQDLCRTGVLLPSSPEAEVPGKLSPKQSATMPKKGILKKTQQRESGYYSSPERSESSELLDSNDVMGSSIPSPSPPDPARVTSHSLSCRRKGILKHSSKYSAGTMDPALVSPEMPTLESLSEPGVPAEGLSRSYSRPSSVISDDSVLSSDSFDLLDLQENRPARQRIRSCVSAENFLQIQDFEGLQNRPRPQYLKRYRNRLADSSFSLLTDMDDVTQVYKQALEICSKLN
Put plainly: In vitro NUAK1 enzymatic assay (Eurofins Discovery, [γ-33P]-ATP filter assay). The class given is biochemical. The conditions noted are these: 45 μM ATP, 40 min, room temperature; read-out: IC50, inhibitory effect on NUAK1 enzyme activity. On the procedure: In Vitro Assay to Determine the Inhibitory Effect of Compounds in the Patent on NUAK1 Enzymatic Activity
The in vitro NUAK1 enzymatic assay was carried out at Eurofins Discovery to evaluate the inhibitory effect of the compounds presented in the invention. The assay protocol is as follow: the compound to be tested was mixed with NUAK1(h) enzyme and 300 μM […] substrate in 8 mM MOPS (pH 7.0) buffer containing 0.2 mM EDTA and incubated at room temperature. A Mg/ATP mixture containing 10 mM magnesium acetate and 45 μM [y-33P]-ATP was added to start the reaction. After incubation for 40 min at room temperature, the reaction was terminated by adding 0.5% phosphoric acid. Then, 10 μL of the reaction mix was spotted onto a P30 filter paper followed with four times of wash with 0.425% phosphoric acid solution (4 min each time), and one time wash with methanol. The filter paper was air-dried and counted in a liquid scintillation counter. The values obtained were plotted against the drug concentration and the IC50 was calculated.
Table 1 summarizes the inhibitory effect (IC50) of compounds tested on the NUAK1 enzyme activity in the present invention. ++++ indicates IC50≤10 nM; […]; ++ indicates 100 nM<IC50≤1 μM; + indicates IC50>1 μM.

The target of experiment [2] is T2, NUAK2(h) enzyme (Homo sapiens, UniProt Q9H093).
T2 construct: purchased Eurofins Discovery
T2 sequence (Q9H093 1-628): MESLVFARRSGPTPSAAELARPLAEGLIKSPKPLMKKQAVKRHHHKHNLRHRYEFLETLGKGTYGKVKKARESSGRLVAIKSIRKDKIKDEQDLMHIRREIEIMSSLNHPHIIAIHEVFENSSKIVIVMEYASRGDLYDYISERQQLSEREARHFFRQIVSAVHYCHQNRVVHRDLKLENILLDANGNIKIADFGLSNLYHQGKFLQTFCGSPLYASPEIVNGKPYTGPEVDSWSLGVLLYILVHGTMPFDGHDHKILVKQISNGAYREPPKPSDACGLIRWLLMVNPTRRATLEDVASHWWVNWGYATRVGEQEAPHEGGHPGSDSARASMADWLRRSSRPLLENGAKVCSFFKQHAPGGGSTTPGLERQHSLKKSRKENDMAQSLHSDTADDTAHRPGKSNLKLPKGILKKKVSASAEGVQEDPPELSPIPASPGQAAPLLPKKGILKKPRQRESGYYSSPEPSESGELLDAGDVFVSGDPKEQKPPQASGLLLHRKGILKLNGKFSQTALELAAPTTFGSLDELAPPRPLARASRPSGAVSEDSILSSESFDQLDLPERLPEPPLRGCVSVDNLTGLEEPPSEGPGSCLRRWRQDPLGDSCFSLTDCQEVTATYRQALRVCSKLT
Put plainly: In vitro NUAK2 enzymatic assay (Eurofins Discovery, [γ-33P]-ATP filter assay). The class given is biochemical. The following applies: 45 μM ATP, 40 min, room temperature; read-out: IC50, inhibitory effect on NUAK2 enzyme activity. As to the method: In Vitro Assay to Determine the Inhibitory Effect of Compounds in the Patent on NUAK2 Enzymatic Activity
The in vitro NUAK2 enzymatic assay was carried out at Eurofins Discovery to evaluate the inhibitory effect of the compounds presented in the invention. The assay protocol is as follow: the compound to be tested was mixed with NUAK2(h) enzyme and 300 […] substrate in 8 mM MOPS (pH 7.0) buffer containing 0.2 mM EDTA. A Mg/ATP mixture containing 10 mM magnesium acetate and 45 μM [γ-33P]-ATP was added to start the reaction. After incubation for 40 min at room temperature, the reaction was terminated by adding 0.5% phosphoric acid. Then 10 μL of the reaction mix was spotted onto a P30 filter paper. The filter paper was washed four times with 0.425% phosphoric acid with 4 min for each wash, and one time with methanol. The filter paper was air-dried and counted in a liquid scintillation counter. The values obtained were plotted against the drug concentration and the IC50 was calculated.
Table 1 summarizes the inhibitory effect (IC50) of compounds on the NUAK2 enzyme activity in the present invention. ++++ indicates IC50≤10 nM; +++ indicates 10 nM<IC50≤100 nM; ++ indicates 100 nM<IC50≤1 μM; + indicates IC50>1 μM.

In experiment [3] the test system is HEC-1-B human endometrial cancer cells. Put plainly: CTG (CellTiter-Glo) proliferation assay on HEC-1-B cells, 7 days. The class given is cell-based. The following applies: 168 h, 7 days incubation, read-out: IC50, inhibitory effect on proliferation of Hec-1B cells. On the procedure:
CTG Assay to Evaluate the Inhibitory Effect of Compounds on HEC-1-B Human Endometrial Cancer Cells
Human endometrial cancer HEC-1-B cells were resuscitated and cultured in complete medium (MEM medium+10% FBS). When reaching about 80% confluence, the cells were gently blown away from the bottom of the culture dish with a 1 mL pipette. The cells were collected and centrifuged at 500 rpm for 3 min. The supernatant was discarded and the cell pellet was resuspend in fresh medium. Cells were counted to determine cell density and seeded into 96-well plates at a density of 1000 cells per well and incubated overnight at 37° C. in a 5% CO2 incubator. In the next day, the compounds in storage solution was serially diluted with DMSO at a ratio of 1:3 for a total of 9 concentrations. Two μL of each serially diluted solution was added to 98 μL of cell culture medium ([…]), while DMSO was mixed with culture medium similarly to be served as control. The compound dilutions were shaken and mixed. The cell culture plate with cells was removed from CO2 incubator, the culture medium was aspirated from each well, 135 μL of fresh medium was added to each well followed with 15 μL of the compound dilutions. The plates were incubated at 37° C. for 7 days in a 5% CO2 incubator. One hundred μL CellTiter-Glo reagent was added to each well and the plate was vortexed for 2 min and incubated for 10 min to fully lyse the cells. The chemiluminescence values were read using a plate reader.
The chemiluminescence values were plotted against compound concentrations to calculate the inhibitory activity of each compound on cell proliferation Cell inhibition rate (%)=(chemiluminescence value tested compound−chemiluminescence value DMSO control)/(chemiluminescence value medium control−chemiluminescence valueDMSO control)×100%.
A nonlinear S-curve regression was fitted using XLFit software to fit the data to derive a dose-effect curve, from which the IC50 values were calculated. The curve equation was Y=Bottom+(Top-Bottom)/(1+10{acute over ( )}((LogIC50-X)×slope)), where Y is the cellular inhibition rate, X is the compound concentration, Bottom refers to the lowest inhibition rate, and Top refers to the highest inhibition rate.
Table 3 summarizes the inhibitory effects (IC50) of the compounds on the proliferation of Hec-1B cells, Where ++++ indicates 100 nM<IC50≤500 nM; +++ indicates 500 nM<IC50≤1 μM; ++ indicates 1 μM<IC50≤10 μM; + indicates IC50>10 μM.
On the technique in general: ATP-based viability assays read luminescence as a measure of living cells.

Some results are limits rather than exact numbers.

`COc1cc(N2CCN(C)CC2)ccc1Nc1ncc2c(n1)N(C1CCCC1)C(=O)NC2` [Example 2, 1-cyclopentyl-7-((2-methoxy-4-(4-methylpiperazin-1-yl)phenyl)amino)-3,4-dihydropyrimido[4,5-d]pyrimidin-2(1H)-one]: the values for the IC50 in experiment [1], in experiment [2] and in experiment [3] were 0.01 to 0.1 µM, 0.01 to 0.1 µM and 1 to 10 µM, respectively.
For the molecule `COc1cc(N2CCN(C)CC2)ccc1Nc1ncc2cnc(=O)n(C3CCCC3)c2n1` [Example 5, 1-cyclopentyl-7-((2-methoxy-4-(4-methylpiperazin-1-yl)phenyl)amino)pyrimido[4,5-d]pyrimidin-2(1H)-one], the figures for the IC50 in experiment [1], in experiment [2] and in experiment [3] were 0.1 to 1 µM, at most 0.01 µM and 0.5 to 1 µM, respectively.
In the case of `COc1cc(N2CCN(C)CC2)ccc1Nc1ncc2cnc(=O)n(C3CCCCC3)c2n1` [Example 6, 1-cyclohexyl-7-((2-methoxy-4-(4-methylpiperazin-1-yl)phenyl)amino)pyrimido[4,5-d]pyrimidin-2(1H)-one], the IC50 was 0.1 to 1 µM in experiment [1], 0.01 to 0.1 µM in experiment [2] and 0.5 to 1 µM in experiment [3].
The corresponding values for `Cc1cc(N2CCN(C)CC2)ccc1Nc1ncc2cnc(=O)n(C3CCCC3)c2n1` [Example 10, 1-cyclopentyl-7-((2-methyl-4-(4-methylpiperazin-1-yl)phenyl)amino)pyrimido[4,5-d]pyrimidin-2(1H)-one] are 0.1 to 1 µM, 0.01 to 0.1 µM and 0.5 to 1 µM.
Regarding `COc1cc(N2CCN(C)CC2)ccc1Nc1ncc2ccc(=O)n(C3CCCC3)c2n1` [Example 19, 8-cyclopentyl-2-((2-methoxy-4-(4-methylpiperazin-1-yl)phenyl)amino)pyrido[2,3-d]pyrimidin-7(8H)-one], the IC50 is 0.01 to 0.1 µM in experiment [1], at most 0.01 µM in experiment [2] and 0.5 to 1 µM in experiment [3].
For `COc1cc(N2CCN(C)CC2)ccc1Nc1ncc2cc(C)c(=O)n(C3CCCC3)c2n1` [Example 20, 8-cyclopentyl-2-((2-methoxy-4-(4-methylpiperazin-1-yl)phenyl)amino)-6-methylpyrido[2,3-d]pyrimidin-7(8H)-one], in that order: 0.01 to 0.1 µM, 0.01 to 0.1 µM and over 10 µM.
For `COc1cc(N2CCN(C)CC2)ccc1Nc1ncc2cc(C)c(=O)n(C3CC3)c2n1` [Example 21], in that order: 0.01 to 0.1 µM, 0.1 to 1 µM and 0.1 to 0.5 µM.
Regarding `COc1cc(N2CCN(C)CC2)ccc1Nc1ncc2ccc(=O)n(C3CCCCC3)c2n1` [Example 22, 8-cyclohexyl-2-((2-methoxy-4-(4-methylpiperazin-1-yl)phenyl)amino)pyrido[2,3-d]pyrimidin-7(8H)-one], the results for the IC50 in experiment [1], in experiment [2] and in experiment [3] were at most 0.01 µM, at most 0.01 µM and over 10 µM, respectively.
`COc1cc(N2CCN(C)CC2)ccc1Nc1ncc2ccc(=O)n(C3CC3)c2n1` [Example 23, 8-cyclopropyl-2-((2-methoxy-4-(4-methylpiperazin-1-yl)phenyl)amino)pyrido[2,3-d]pyrimidin-7(8H)-one]: the results for the IC50 in experiment [1], in experiment [2] and in experiment [3] were 0.01 to 0.1 µM, 0.1 to 1 µM and 0.1 to 0.5 µM, respectively.
For the molecule `COc1cc(N2CCN(C)CC2)ccc1Nc1nnc2ccc(=O)n(C3CCCC3)c2n1` [Example 24, 5-cyclopentyl-3-((2-methoxy-4-(4-methylpiperazin-1-yl)phenyl)amino)pyrido[2,3-e][1,2,4]triazin-6(5H)-one], the figures for the IC50 in experiment [1], in experiment [2] and in experiment [3] were 0.1 to 1 µM, 0.01 to 0.1 µM and 0.5 to 1 µM, respectively.
The corresponding values for `COc1cc(N2CCN(C)CC2)ccc1Nc1ncc2cc(C#N)c(=O)n(C3CCCC3)c2n1` [Example 26, 8-cyclopentyl-2-((2-methoxy-4-(4-methylpiperazin-1-yl)phenyl)amino)-7-oxo-7,8-dihydropyrido[2,3-d]pyrimidine-6-carbonitrile] are 0.01 to 0.1 µM, 0.01 to 0.1 µM and 0.5 to 1 µM.
The corresponding values for `COc1cc(N2CCN(C)CC2)ccc1Nc1ncc2c(C)cc(=O)n(C3CCCC3)c2n1` [Example 27, 8-cyclopentyl-2-((2-methoxy-4-(4-methylpiperazin-1-yl)phenyl)amino)-5-methylpyrido[2,3-d]pyrimidin-7(8H)-one] are 0.1 to 1 µM, 0.1 to 1 µM and 1 to 10 µM.
`COc1cc(N2CCN(C)CC2)ccc1Nc1ncc2c(n1)N(C1CCCC1)C(=O)CC2` [Example 28, 8-cyclopentyl-2-((2-methoxy-4-(4-methylpiperazin-1-yl)phenyl)amino)-5,8-dihydropyrido[2,3-d]pyrimidin-7(6H)-one]: the IC50 fell in the range of 0.1 to 1 µM in experiment [1], 0.01 to 0.1 µM in experiment [2] and 1 to 10 µM in experiment [3].

Source of the values: patent US20240124464A1, “SUBSTITUTED FUSED BICYCLIC COMPOUND AS KINASE INHIBITOR AND USE THEREOF” (IMPACT THERAPEUTICS (SHANGHAI), INC, priority 2020, published 2024).
